Measured values: patent US20240049711A1, “HERBICIDE COMPOSITION AND WEED CONTROLLING METHOD” (SUMITOMO CHEMICAL COMPANY, LIMITED, priority 2020, published 2024)
Structures can show the parent of a compound that is named as a salt.

Tests used:
Type in all cases: in vivo
[1] = test system: Italian ryegrass (Lolium multiflorum); assay: Example 208: greenhouse pot test, spray above the pot 21 days after seeding; settings: rating 0 to 100; application rate compound X 15 g/ha, clethodim 53 g/ha; 200 L/ha; evaluated 6 days after spraying
Experimental: The compound X (55 mg) produced in Reference Production Example 1, 76.5 mg of Emulsogen TS290 (polyoxyethylene tristyryl phenyl ether, manufactured by Clariant) and 76.5 mg of Phenylsulfonat CAL (mixture of 70% calcium dodecylbenzenesulfonate and 30% iso-butanol, manufactured by Clariant) were dissolved in Solvesso 200ND (aromatic hydrocarbon, manufactured by Exxon Mobile Corporation) to make 1 ml in total, thus producing an emulsifiable concentrate (hereinafter referred to as formulation X).
After filling a plastic pot with soil, Italian ryegrass (Loliism multiflorum) was seeded therein and grown in a greenhouse.

[2] = test system: Italian ryegrass (Lolium multiflorum); assay: Example 209: greenhouse pot test, spray above the pot 21 days after seeding; settings: rating 0 to 100; application rate compound X 15 g/ha, pendimethalin 560 g/ha; 200 L/ha; evaluated 6 or 8 days after spraying
Experimental: (§1) After filling a plastic pot with soil, Italian ryegrass (Lolium multiflorum) and giant foxtail (Setaria faberi) were seeded therein and grown in a greenhouse.

[3] = test system: giant foxtail (Setaria faberi); assay: as above; settings: rating 0 to 100; application rate compound X 15 g/ha, pendimethalin 560 g/ha; 200 L/ha; evaluated 6 or 8 days after spraying
Experimental: as §1

[4] = test system: Italian ryegrass (Lolium multiflorum); assay: Example 212: greenhouse pot test, spray above the pot 21 days after seeding; settings: rating 0 to 100; application rate compound X 15 g/ha, glyphosate potassium salt 630 g/ha; 200 L/ha; evaluated 6 days after spraying
Experimental: as §1

[5] = test system: giant foxtail (Setaria faberi); assay: as above; settings: rating 0 to 100; application rate compound X 15 g/ha, glyphosate potassium salt 630 g/ha; 200 L/ha; evaluated 6 days after spraying
Experimental: as §1

Italian ryegrass = assay: Example 213: greenhouse pot test, spray above the pot 21 days after seeding; settings: rating 0 to 100; application rate compound X 15 g/ha, glufosinate ammonium salt 297 g/ha; 200 L/ha; evaluated 8 days after spraying
[6] = test system: common barnyardgrass (Echinochloa crus-galli); assay: Example 214: greenhouse pot test, spray above the pot 25 days after seeding; settings: rating 0 to 100; application rate compound X 10 g/ha, chlorimuron-ethyl 16 g/ha; 216 L/ha; 18 days after spraying
Experimental: A formulation was produced by dissolving a predetermined amount of chlorimuron-ethyl in DMF containing 2% Tween 20 (polyoxyethylene (20) sorbitan monolaurate) (called chlorimuron-ethyl formulation).
After filling a plastic pot with soil, common barnyardgrass (Echinochloa crus-galli) was seeded therein and grown in a greenhouse. […] Thereafter, the weeds were grown in the greenhouse for 18 days and the herbicidal effect was estimated.

[7] = test system: common barnyardgrass (Echinochloa crus-galli); assay: Example 215: greenhouse pot test, spray above the pot 25 days after seeding; settings: rating 0 to 100; application rate compound X 10 g/ha, mesotrione 35 g/ha; 216 L/ha; 18 days after spraying
Experimental: A formulation was produced by dissolving a predetermined amount of mesotrione in DMF containing 2% Tween 20 (polyoxyethylene (20) sorbitan monolaurate) (called mesotrione formulation).
(§2) After filling a plastic pot with soil, common barnyardgrass (Echinochloa crus-galli) was seeded therein and grown in a greenhouse. […] Thereafter, the weeds were grown in the greenhouse for 18 days and the herbicidal effect was evaluated.

[8] = test system: common barnyardgrass (Echinochloa crus-galli); assay: Example 216: greenhouse pot test, spray above the pot 25 days after seeding; settings: rating 0 to 100; application rate compound X 10 g/ha, metribuzin 105 g/ha; 216 L/ha; 18 days after spraying
Experimental: A formulation was produced by dissolving a predetermined amount of metribuzin in DMF containing 2% Tween 20 (polyoxyethylene (20) sorbitan monolaurate) (called metribuzin formulation).
as §2

[9] = test system: common barnyardgrass (Echinochloa crus-galli); assay: Example 217: greenhouse pot test, spray above the pot 25 days after seeding; settings: rating 0 to 100; application rate (table) compound X 10 g/ha, flumioxazin 30 g/ha; 216 L/ha; 18 days after spraying
Experimental: A formulation was produced by dissolving a predetermined amount of flumioxazin in DMF containing 2% Tween 20 (polyoxyethylene (20) sorbitan monolaurate) (called flumioxazin formulation).
as §2

[10] = test system: common barnyardgrass (Echinochloa crus-galli); assay: Example 218: greenhouse pot test, spray above the pot 25 days after seeding; settings: rating 0 to 100; application rate (table) compound X 10 g/ha, pyroxasulfone 40 g/ha; 216 L/ha; 18 days after spraying
Experimental: A formulation was produced by dissolving a predetermined of pyroxasulfone in DMF containing 2% Tween 20 (polyoxyethylene (20) sorbitan monolaurate) (called pyroxasulfone formulation).
as §2

## CCOC(=O)COC(=O)C1(Oc2cc(-n3c(=O)cc(C(F)(F)F)n(C)c3=O)c(F)cc2Cl)CC1 [Compound X]
[1]
  Herbicidal effect on Italian ryegrass (observed value): 20
[2]
  Herbicidal effect on Italian ryegrass (observed value): 20
[3]
  Herbicidal effect on giant foxtail (observed value): 70
[4]
  Herbicidal effect on Italian ryegrass (observed value): 20
[5]
  Herbicidal effect on giant foxtail (observed value): 70
Italian ryegrass
  Herbicidal effect on Italian ryegrass (observed value): 20
[6]
  Herbicidal effect on common barnyardgrass (observed value): 45
[7]
  Herbicidal effect on common barnyardgrass (observed value): 45
[8]
  Herbicidal effect on common barnyardgrass (observed value): 45
[9]
  Herbicidal effect on common barnyardgrass (observed value): 45
[10]
  Herbicidal effect on common barnyardgrass (observed value): 45

## C#CCN1C(=O)COc2cc(F)c(N3C(=O)C4=C(CCCC4)C3=O)cc21 [Flumioxazin, flumioxazin]
[9]
  Herbicidal effect on common barnyardgrass (observed value): 55

## CP(=O)(O)CCC(N)C(=O)O (stereo not shown) [Glufosinate ammonium salt, glufosinate ammonium salt]
Italian ryegrass
  Herbicidal effect on Italian ryegrass (observed value): 80

## CSc1nnc(C(C)(C)C)c(=O)n1N [Metribuzin, metribuzin]
[8]
  Herbicidal effect on common barnyardgrass (observed value): 8

## CCC(CC)Nc1c([N+](=O)[O-])cc(C)c(C)c1[N+](=O)[O-] [Pendimethalin, pendimethalin]
[2]
  Herbicidal effect on Italian ryegrass (observed value): 0
[3]
  Herbicidal effect on giant foxtail (observed value): 0

## CS(=O)(=O)c1ccc(C(=O)C2C(=O)CCCC2=O)c([N+](=O)[O-])c1 [Mesotrione, mesotrione]
[7]
  Herbicidal effect on common barnyardgrass (observed value): 40

## CCOC(=O)c1ccccc1S(=O)(=O)NC(=O)Nc1nc(Cl)cc(OC)n1 [Chlorimuron-ethyl, chlorimuron-ethyl]
[6]
  Herbicidal effect on common barnyardgrass (observed value): 45

## CCSC(C)CC1CC(=O)C(/C(CC)=N/OC/C=C/Cl)=C(O)C1 (stereo not shown) [Clethodim, clethodim]
[1]
  Herbicidal effect on Italian ryegrass (observed value): 10

## Cn1nc(C(F)(F)F)c(CS(=O)(=O)C2=NOC(C)(C)C2)c1OC(F)F [Pyroxasulfone, pyroxasulfone]
[10]
  Herbicidal effect on common barnyardgrass (observed value): 2

## O=C(O)CNCP(=O)(O)O [Glyphosate potassium salt, glyphosate potassium salt]
[4]
  Herbicidal effect on Italian ryegrass (observed value): 50
[5]
  Herbicidal effect on giant foxtail (observed value): 40
